Among the data in patent US12172983B2, “EGFR inhibitors” (Blueprint Medicines Corporation, priority 2019, dated 2024) are IC50 values, retold here.

In test [1] the test system is phosphorylation of EGFR (Tyr1068) in NCI-H1975 cell line that harbors the EGFR L858R T790M mutations. Nature of the test: NCI-H1975 pEGFR AlphaLISA assay. The format is cell-based. Conditions: 4-5 hours incubation, read-out: Ext pEGFR H1975. How it is done:
Inhibitory effects of the compounds of the disclosure were evaluated in cellular assays that measure level of intracellular phosphorylation of EGFR in NCI-H1975 cell line that harbors the EGFR L858R T790M mutations (ATCC, CRL-5908) using AlphaLISA sureFire ultra p-EGFR (Tyr1068) assay kit (PerkinElmer, ALSU-PEGFR-A50K). The NCI-H1975 cells were seeded at 12.5K/well in 22 μL into 384 well opti plate (PerkinElmer, 6007299) and adhering overnight at 37 C/5% CO2. On the next day, the test compounds and DMSO control were added into H1975 cell plate followed by incubation at 37 C/5% CO2 for 4-5 hours. The cells were then spin down in the 384-well plate and lysed with 10 μL of 1×AlphaLISA lysis buffer followed by shaking at 600 rpm for 10 minutes at room temperature. After that, 5 μL of an acceptor bead mix was added to each well followed by incubation at room temperature for 1.5-2 h in dark. Then 5 μL of a donor bead mix was added to each well followed by overnight incubation at room temperature in dark. On the next day, the plate was read at a compatible plate reader to obtain pEGFR signal. Percent of pEGFR inhibition was plotted against log concentration of compounds to generate IC50 values.
Background: Alpha assays give light when donor and acceptor beads are brought close together.

In test [2] the target is T1, EGFR (L858R T790M C797S) (Homo sapiens, UniProt P00533, C797S/L858R/T790M).
T1 construct: purchased SignalChem E10-122VG
T1 sequence (P00533 25-1210 T790M/C797S/L858R): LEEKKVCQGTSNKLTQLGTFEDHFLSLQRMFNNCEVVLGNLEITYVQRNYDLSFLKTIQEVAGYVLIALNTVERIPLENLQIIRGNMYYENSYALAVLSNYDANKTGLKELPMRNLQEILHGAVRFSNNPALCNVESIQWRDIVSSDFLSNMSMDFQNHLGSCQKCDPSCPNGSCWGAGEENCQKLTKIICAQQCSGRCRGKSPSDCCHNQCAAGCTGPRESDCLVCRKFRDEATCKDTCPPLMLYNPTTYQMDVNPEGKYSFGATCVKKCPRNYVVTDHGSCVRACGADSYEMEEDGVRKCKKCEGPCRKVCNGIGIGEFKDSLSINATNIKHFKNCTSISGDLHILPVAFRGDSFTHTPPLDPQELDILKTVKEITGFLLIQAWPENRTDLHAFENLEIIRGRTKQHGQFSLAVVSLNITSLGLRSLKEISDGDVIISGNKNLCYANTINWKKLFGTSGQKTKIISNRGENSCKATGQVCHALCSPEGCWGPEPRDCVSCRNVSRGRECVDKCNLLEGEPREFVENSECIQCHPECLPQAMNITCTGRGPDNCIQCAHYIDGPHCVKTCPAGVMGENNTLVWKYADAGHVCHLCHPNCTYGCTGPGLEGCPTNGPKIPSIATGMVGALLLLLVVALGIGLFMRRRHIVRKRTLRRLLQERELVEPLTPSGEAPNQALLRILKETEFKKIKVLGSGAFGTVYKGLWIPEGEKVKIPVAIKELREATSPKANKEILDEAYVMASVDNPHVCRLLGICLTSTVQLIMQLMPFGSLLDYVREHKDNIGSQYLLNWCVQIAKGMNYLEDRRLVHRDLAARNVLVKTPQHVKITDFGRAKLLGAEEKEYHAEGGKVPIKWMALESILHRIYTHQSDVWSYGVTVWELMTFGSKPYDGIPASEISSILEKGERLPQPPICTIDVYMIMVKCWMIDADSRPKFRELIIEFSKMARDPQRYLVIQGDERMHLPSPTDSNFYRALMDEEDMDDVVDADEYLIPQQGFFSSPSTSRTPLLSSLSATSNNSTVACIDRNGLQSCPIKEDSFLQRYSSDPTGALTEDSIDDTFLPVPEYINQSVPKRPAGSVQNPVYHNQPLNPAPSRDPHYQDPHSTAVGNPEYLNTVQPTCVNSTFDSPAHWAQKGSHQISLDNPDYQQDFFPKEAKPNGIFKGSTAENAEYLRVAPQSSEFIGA
Nature of the test: Biochemical EGFR inhibition assay (Caliper mobility shift), EGFR LRTMCS mutant. The settings on record: inhibitory activity against EGFR LRTMCS mutant; apparent IC50; read-out: Ext Enz LRTMCS. How it is done:
Reactions proceeded until between 10% to 20% total peptides were phosphorylated at room temperature (25° C.) and were terminated with 35 mM 2,2′,2″,2′″-(ethane-1,2-diyldinitrilo)tetraacetic acid (EDTA). Product was detected using the Caliper mobility shift detection method where the phosphorylated peptide (product) and substrate were electrophoretically separated and measured. Percent activity was plotted against log concentration of compound and points to generate an apparent IC50.

Where [3] appears, read: inhibition of phosphorylation of mutant EGFR in NCI-H1975 cells.
Setting [4] is: Homo sapiens, NCI-H1975, inhibition of phosphorylation of mutant EGFR in NCI-H1975 cells.

Read-outs that look alike come from different tables or passages of the source. A value given as a limit tells only on which side of the number the result lay.

For `CC(C)c1ccc(N2CC(CS(C)(=O)=O)C2)c2cnc(Nc3ccnc(N4CC[C@H](O)[C@H](C)C4)n3)cc12` (single isomer, unassigned) [Compound 19, (3S,4R)-1-[4-({8-[3-(methanesulfonylmethyl)azetidin-1-yl]-5-(propan-2-yl)isoquinolin-3-yl}amino)pyrimidin-2-yl]-3-methylpiperidin-4-ol or (3R,4S)-1-[4-({8-1,3-(methanesulfonylmethyl)azetidin-1-yl]-5-(propan-2-yl)isoquinolin-3-yl}amino)pyrimidin-2-yl]-3-methylpiperidin-4-ol], the IC50 in test [1] (setting [3]) lay within 10.1 to 20 nM; in test [2], 15.1 to 20 nM.

As to `CC(C)c1ccc(N2CC(CS(C)(=O)=O)C2)c2cnc(Nc3ccnc(N4CC[C@H](O)[C@H](C)C4)n3)cc12` (single isomer, unassigned) [Compound 20, (3R,4S)-1-[4-({8-[3-(methanesulfonylmethyl)azetidin-1-yl]-5-(propan-2-yl)isoquinolin-3-yl}amino)pyrimidin-2-yl]-3-methylpiperidin-4-ol or (3S,4R)-1-[4-({8-[3-(methanesulfonylmethyl)azetidin-1-yl]-5-(propan-2-yl)isoquinolin-3-yl}amino)pyrimidin-2-yl]-3-methylpiperidin-4-ol], the IC50 in test [1] (setting [3]) is 30.1 to 50 nM; in test [2], 15.1 to 20 nM.

With `CC(C)c1ccc(N2CC(CS(C)(=O)=O)C2)c2cnc(Nc3ccnc(N4CC[C@@H](F)[C@H](O)C4)n3)cc12` (single isomer, unassigned) [Compound 24, (3S,4S)-4-fluoro-1-[4-({8-[3-(methanesulfonylmethyl)azetidin-1-yl]-5-(propan-2-yl)isoquinolin-3-yl}amino)pyrimidin-2-yl]piperidin-3-ol or (3R,4R)-4-fluoro-1-[4-({8-[3-(methanesulfonylmethyl)azetidin-1-yl]-5-(propan-2-yl)isoquinolin-3-yl}amino)pyrimidin-2-yl]piperidin-3-ol], the IC50 in test [1] (setting [4]) is 20.1 to 30 nM; in test [2] it was ≤ 15 nM.

In the case of `CCS(=O)(=O)CC1CN(c2ccc(C)c3cc(Nc4ccnc(N5CC[C@@H](O)[C@@](C)(F)C5)n4)ncc23)C1` (single isomer, unassigned) [Compound 25], the IC50 in test [1] (setting [4]) is 30.1 to 50 nM; in test [2] it was ≤ 15 nM.

Turning to `CC(C)c1ccc(N2CC(CS(C)(=O)=O)C2)c2cnc(Nc3ccnc(N4CC[C@@H](F)[C@@H](O)C4)n3)cc12` (single isomer, unassigned) [Compound 26, (3R,4S)-4-fluoro-1-[4-({8-[3-(methanesulfonylmethyl)azetidin-1-yl]-5-(propan-2-yl)isoquinolin-3-yl}amino)pyrimidin-2-yl]piperidin-3-ol or (3S,4R)-4-fluoro-1-[4-({8-[3-(methanesulfonylmethyl)azetidin-1-yl]-5-(propan-2-yl)isoquinolin-3-yl}amino)pyrimidin-2-yl]piperidin-3-ol], the IC50 in test [1] (setting [4]) is ≤ 10 nM; in test [2], ≤ 15 nM.

Take `CCS(=O)(=O)CC1CN(c2cccc3cc(Nc4ccnc(N5C[C@H](F)[C@H](O)C(C)(C)C5)n4)ncc23)C1` (single isomer, unassigned) [Compound 27, (4S,5R)-1-{4-[(8-{3-[(ethanesulfonyl)methyl]azetidin-1-yl}isoquinolin-3-yl)amino]pyrimidin-2-yl}-5-fluoro-3,3-dimethylpiperidin-4-ol or (4R,5S)-1-{4-[(8-{3-[(ethanesulfonyl)methyl]azetidin-1-yl}isoquinolin-3-yl)amino]pyrimidin-2-yl}-5-fluoro-3,3-dimethylpiperidin-4-ol]: the IC50 was 10.1 to 20 nM in test [1] (setting [4]) and ≤ 15 nM in test [2].
